Experimental data taken from the OPERA property sets (Mansouri et al. 2018).
≈ marks a conversion by molar mass, not a printed value.

Settings: 20 °C

solubility	Structure (SMILES)
1.87 mM (≈ 500 µg/mL)	BrCC(Br)Br
2.79 mM (≈ 620 µg/mL)	ClC(Br)CBr (stereo not given)

Structure (SMILES)	solubility
ClC(Br)C(Cl)Br (stereo not given)	2.73 mM (≈ 700 µg/mL)

Same assay, conditions: 24 °C

solubility	Structure (SMILES)
6.3 mM (≈ 850 µg/mL)	FC(F)(Cl)CCl

Same assay, conditions: 25 °C

Structure (SMILES)	solubility
ClCC(Cl)(Cl)Cl	6.38 mM (≈ 1070 µg/mL)
BrC(Br)C(Br)Br	1.91 mM (≈ 659 µg/mL)
CC(Cl)(Cl)Cl	11.2 mM (≈ 1490 µg/mL)
CCI	25.1 mM (≈ 3910 µg/mL)
ClC(Cl)=C(Cl)Cl	1.21 mM (≈ 200 µg/mL)
ClCC(Cl)Cl	33.1 mM (≈ 4420 µg/mL)
C=C(Cl)Cl	23.2 mM (≈ 2250 µg/mL)
ClCCBr	48.1 mM (≈ 6900 µg/mL)
FC(F)(Br)C(F)(F)Br	0.0115 mM (≈ 3 µg/mL)
CCBr	82 mM (≈ 8940 µg/mL)
FC(F)(F)C(Cl)Br (stereo not given)	19.8 mM (≈ 3900 µg/mL)
CCCl	88 mM (≈ 5680 µg/mL)
FCCCl	296 mM (≈ 24400 µg/mL)
CC(F)(Cl)Cl	3.59 mM (≈ 420 µg/mL)
ClC(Cl)C(Cl)(Cl)Cl	2.37 mM (≈ 480 µg/mL)
FC(F)(F)C(Cl)Cl	13.7 mM (≈ 2100 µg/mL)
